The source made the active and inactive calls.
How the values were obtained:
[1] = microbe, parasite or virus in culture; type: functional; details: Mycobacterium tuberculosis
[2] = Luminescence Cell-Based Dose Retest to Confirm Inhibitors of Cancer Stem Cells. [Related pubchem assays (depositor defined):AID2717, AID2721]; type: functional; details: Homo sapiens
[3] = molecular target: Neurotensin receptor type 1 (Homo sapiens, UniProt P30989); type: functional;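 also: Image-based confirmatory dose-response assay measuring agonist activity at NTR1; NTR1-expressing U2OS osteosarcoma cells imaged for beta-arrestin GFP spot formation; agonist potency where compounds increase beta-arrestin recruitment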
[4] = viability loss in THP-1 monocytes – THP-1 cells, cytotoxicity control for Vif-APOBEC3G degradation inhibitor project, dose response (AID 1117359); type: functional; details: THP-1
Large T antigen = Large T antigen (Simian virus 40, UniProt P03070); type: functional, Betapolyomavirus macacae;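 also: Confirmatory-stage PubChem screen for compounds that inhibit SV40 T antigen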
[5] = molecular target: DNA dC->dU-editing enzyme APOBEC-3A (Homo sapiens, UniProt P31941); test: A3A deaminase inhibition for selectivity – biochemical, dose response (AID 504722); type: functional
[6] = molecular target: DNA dC->dU-editing enzyme APOBEC-3G (Homo sapiens, UniProt Q9HC16); test: Dose Response confirmation of small molecule APOBEC3G DNA Deaminase Inhibitors via a fluorescence-based single-stranded DNA deaminase assay. [Related pubchem assays (depositor defined):AID493012, AID493028]; type: functional
Cytochrome P450 2D6 = Cytochrome P450 2D6 (Homo sapiens, UniProt P10635); test: qHTS Assay for Inhibitors and Substrates of Cytochrome P450 2D6. [Related pubchem assays: 410 ]; type: ADME; details: read-out: Potency
Cytochrome P450 3A4 = Cytochrome P450 3A4 (Homo sapiens, UniProt P08684); details: Potency;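 also: confirmatory qHTS run detecting inhibitors and substrates of CYP3A4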
[7] = molecular target: Epstein-Barr nuclear antigen 1 (Epstein-Barr virus (strain B95-8) (HHV-4) (Human herpesvirus 4), UniProt P03211); test: inhibition of EBV nuclear antigen 1 DNA binding – biochemical, fluorescence polarization, 1536-well, dose response (AID 2381); set-up: species or system human gammaherpesvirus 4;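 also: fluorescence polarization of a Cy5 DNA probe bound by EBNA-1 protein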
[8] = molecular target: Lytic switch protein BZLF1 (Epstein-Barr virus (strain B95-8) (HHV-4) (Human herpesvirus 4), UniProt P03206); test: inhibition of BZLF1 ZTA DNA binding – biochemical, fluorescence polarization, Epstein-Barr virus, 1536-well, counter-screen for EBNA-1 inhibitor project, dose response (AID 2377); set-up: species or system human gammaherpesvirus 4;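 also: fluorescence polarization of Cy5-labelled ZRE DNA probe bound by purified Zta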
[9] = A Cell Based Secondary Assay To Explore Cytotoxicity of Compounds that Sensitize Mycobacterium Tuberculosis to Beta-Lactam Antibiotics.; type: functional
Mu-type opioid receptor = Mu-type opioid receptor (Homo sapiens, UniProt P35372); test: SAR Analysis of Antagonists of the MOR Receptor using an Image-Based Assay - Set 3. [Related pubchem assays (depositor defined):AID1777, AID1785, AID1786, AID1966, AID2133, AID2136, AID2284, AID2285, AID2420]; type: functional
[10] = molecular target: Delta-type opioid receptor (Homo sapiens, UniProt P41143); test: SAR Analysis of Antagonists of the DOR Receptor using an Image-Based Assay - Set 3. [Related pubchem assays (depositor defined):AID1777, AID1785]; type: functional;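 also: U2OS cells expressing DOR1 and beta-arrestin GFP stimulated with 100 nM SNC80; imaging of GFP-tagged beta-arrestin moving into spots after receptor activation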
[11] = molecular target: T1, Kappa-type opioid receptor (Homo sapiens, UniProt P41145); test: SAR analysis of small molecule antagonists of the kappa opioid receptor via a luminescent beta-arrestin assay - Set 3. [Related pubchem assays (depositor defined):AID1777, AID1778, AID1785, AID1786, AID1966, AID2133, AID2136, AID2285, AID2495]; type: functional
[12] = molecular target: T1, Kappa-type opioid receptor; test: SAR analysis of Antagonists of the Kappa Opioid Receptor (KOR) using an Image-Based Assay - Set 3. [Related pubchem assays (depositor defined):AID1777, AID1785]; type: functional
Caspase-3 = molecular target: T2, Caspase-3 (Homo sapiens, UniProt P42574); test: activators of human procaspase-3 D3A mutant – biochemical, absorbance, PC-3 D3A mutant, counter-screen for dual procaspase-3/7 activator project, dose response (AID 504328)
T2 sequence (P42574 whole entry): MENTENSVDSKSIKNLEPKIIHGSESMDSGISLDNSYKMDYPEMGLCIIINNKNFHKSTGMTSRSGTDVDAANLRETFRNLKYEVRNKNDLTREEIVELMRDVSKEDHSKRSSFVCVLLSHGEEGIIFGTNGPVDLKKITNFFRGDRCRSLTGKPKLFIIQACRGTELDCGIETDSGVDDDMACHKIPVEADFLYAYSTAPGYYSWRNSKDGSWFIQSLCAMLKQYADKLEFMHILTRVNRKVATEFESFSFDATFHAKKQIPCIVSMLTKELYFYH

Caspase-7 = molecular target: T3, Caspase-7 (Homo sapiens, UniProt P55210); test: potency of procaspase-7 enzyme activation – biochemical, absorbance, human, dual procaspase-3/-7 activator project, dose response (AID 504330)
T3 sequence (P55210 whole entry): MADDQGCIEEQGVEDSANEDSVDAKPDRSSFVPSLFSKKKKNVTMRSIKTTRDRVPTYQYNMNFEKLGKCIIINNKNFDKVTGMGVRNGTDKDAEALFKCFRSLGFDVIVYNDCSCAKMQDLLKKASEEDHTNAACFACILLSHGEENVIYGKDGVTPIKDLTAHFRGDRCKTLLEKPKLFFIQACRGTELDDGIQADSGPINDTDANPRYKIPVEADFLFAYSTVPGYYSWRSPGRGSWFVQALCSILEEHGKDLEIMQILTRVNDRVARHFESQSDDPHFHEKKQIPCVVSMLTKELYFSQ

Leucine aminopeptidase = molecular target: T4, Leucine aminopeptidase (Plasmodium falciparum 3D7, UniProt Q8IL11); test: P. falciparum M17LAP inhibitors, primary screen, biochemical, fluorogenic H-Leu-NHMec substrate, 1536-well (AID 1619); type: functional
T4 sequence (Q8IL11 whole entry): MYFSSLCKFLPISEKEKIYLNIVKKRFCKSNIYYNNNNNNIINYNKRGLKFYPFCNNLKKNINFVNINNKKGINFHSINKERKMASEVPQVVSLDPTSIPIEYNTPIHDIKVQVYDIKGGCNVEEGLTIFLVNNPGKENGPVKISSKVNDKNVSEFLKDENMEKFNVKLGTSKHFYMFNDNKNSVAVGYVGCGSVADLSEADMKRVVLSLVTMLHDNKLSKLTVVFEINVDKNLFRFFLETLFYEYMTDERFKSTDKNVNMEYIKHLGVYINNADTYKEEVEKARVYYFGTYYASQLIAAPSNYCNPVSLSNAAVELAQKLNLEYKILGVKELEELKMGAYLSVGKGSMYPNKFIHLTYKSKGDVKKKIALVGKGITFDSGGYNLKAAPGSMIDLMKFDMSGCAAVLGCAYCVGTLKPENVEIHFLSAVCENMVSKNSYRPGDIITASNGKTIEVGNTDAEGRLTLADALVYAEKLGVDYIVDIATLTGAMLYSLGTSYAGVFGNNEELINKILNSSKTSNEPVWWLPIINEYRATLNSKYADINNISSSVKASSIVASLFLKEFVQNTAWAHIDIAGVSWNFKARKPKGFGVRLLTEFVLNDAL

Aspartyl aminopeptidase = molecular target: T5, Aspartyl aminopeptidase (Plasmodium falciparum 3D7, UniProt Q8I2J3); test: Counterscreen for inhibitors of M1 and M17 aminopeptidases: QFRET-based biochemical high throughput dose response assay for inhibitors of the Plasmodium falciparum M18 Aspartyl Aminopeptidase (PFM18AAP). [Related PubChem assays: 1619 (Screening assay (M17LAP inhibitors).), 1445 (Screening assay (M1AAP inhibitors).)]
T5 sequence (Q8I2J3 whole entry): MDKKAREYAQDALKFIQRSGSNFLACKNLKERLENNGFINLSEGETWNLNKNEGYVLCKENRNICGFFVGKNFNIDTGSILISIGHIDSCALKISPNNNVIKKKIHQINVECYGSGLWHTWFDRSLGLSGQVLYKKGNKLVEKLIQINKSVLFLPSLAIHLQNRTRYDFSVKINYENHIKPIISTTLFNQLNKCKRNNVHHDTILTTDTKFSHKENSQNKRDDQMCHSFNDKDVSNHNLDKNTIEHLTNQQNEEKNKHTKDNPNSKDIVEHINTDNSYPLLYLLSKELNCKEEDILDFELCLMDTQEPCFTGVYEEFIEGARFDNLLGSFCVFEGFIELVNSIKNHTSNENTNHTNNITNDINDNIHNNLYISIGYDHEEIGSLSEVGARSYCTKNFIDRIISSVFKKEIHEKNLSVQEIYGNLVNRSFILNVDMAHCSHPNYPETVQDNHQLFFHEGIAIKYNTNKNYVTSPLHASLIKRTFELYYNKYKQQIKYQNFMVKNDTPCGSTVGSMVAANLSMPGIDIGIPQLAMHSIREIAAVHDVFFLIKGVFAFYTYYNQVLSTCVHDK

Procathepsin L = Procathepsin L (Homo sapiens, UniProt P07711); test: CTSL1 protease inhibition – biochemical, QFRET, 1536-well, counter-screen for M1/M17 aminopeptidase inhibitor project, dose response (AID 2214)
HeLa = test: Cytotoxicity counterscreen assay for transcriptional activators of heat shock protein 70 (Hsp70). [Related pubchem assays: 1203, 1252 ]; type: functional; details: Homo sapiens;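 also: cells exposed to compound for 16 hours before readout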
Estrogen receptor = molecular target: T6, Estrogen receptor (Homo sapiens, UniProt P03372); test: ERα coactivator recruitment enhancers – biochemical, TR-FRET, ERα LBD, dose response (AID 737)
T6 sequence (P03372 whole entry): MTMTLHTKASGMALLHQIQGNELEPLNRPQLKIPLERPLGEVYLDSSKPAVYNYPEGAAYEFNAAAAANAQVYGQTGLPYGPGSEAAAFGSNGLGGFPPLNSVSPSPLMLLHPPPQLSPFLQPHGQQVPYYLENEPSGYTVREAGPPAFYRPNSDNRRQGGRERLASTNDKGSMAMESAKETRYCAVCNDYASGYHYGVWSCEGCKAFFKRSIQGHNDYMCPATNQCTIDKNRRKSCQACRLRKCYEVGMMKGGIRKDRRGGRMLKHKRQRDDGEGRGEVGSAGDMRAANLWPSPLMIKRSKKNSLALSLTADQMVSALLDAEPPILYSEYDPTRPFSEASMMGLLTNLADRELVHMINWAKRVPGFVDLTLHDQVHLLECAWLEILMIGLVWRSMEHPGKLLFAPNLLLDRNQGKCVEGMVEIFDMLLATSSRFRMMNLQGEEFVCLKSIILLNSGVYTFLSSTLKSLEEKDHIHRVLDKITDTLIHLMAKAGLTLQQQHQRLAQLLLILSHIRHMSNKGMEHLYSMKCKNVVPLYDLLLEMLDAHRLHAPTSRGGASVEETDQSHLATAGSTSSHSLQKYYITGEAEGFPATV

Bcl-2-like protein 10 = molecular target: T7, Bcl-2-like protein 10 (Homo sapiens, UniProt Q9HD36); test: Bcl-B/TR3 peptide binding disruption – biochemical, fluorescence polarization, FITC-TR3 peptide, selectivity assay for Bfl-1 inhibitor project, primary screen (AID 748);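 also: fluorescence polarization from a fluorescein-labelled TR3 peptide binding purified Bcl-B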
T7 sequence (Q9HD36 whole entry): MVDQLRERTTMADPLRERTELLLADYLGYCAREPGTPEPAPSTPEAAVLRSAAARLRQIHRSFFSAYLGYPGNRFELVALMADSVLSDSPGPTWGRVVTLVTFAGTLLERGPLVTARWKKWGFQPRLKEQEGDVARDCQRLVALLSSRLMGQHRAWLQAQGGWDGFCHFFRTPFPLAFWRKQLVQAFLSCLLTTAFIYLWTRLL

[13] = luciferase reporter signal suppression in cells – H4 neuroglioma cells, luminescence, dose response (AID 1990); type: functional, cell-based
[14] = Luminescence Cell-Based Dose Response HTS to Identify Inhibitors of 5'UTR Stem-Loop Driven Prion Protein mRNA Translation in H4 Neuroglioblastoma Cells. [Related pubchem assays: 1827 (Project Summary), 1813 (Primary HTS)]; type: functional
[15] = alpha-synuclein stem-loop luciferase translation blockers – H4 neuroglioma cells, luminescence, confirmation (AID 1988); type: functional, cell-based

CC(C)c1ccc(N2C(=O)NC(=O)/C(=C\C=C\c3ccco3)C2=O)cc1
CC50 [1]: 23.8 µM (active)
AC50 [2]: 1.23 µM (active)
EC50 [3]: 19 µM (active)
CC50 [4]: 37.8 µM (active)

Cc1ccc(/C=N/n2c(S)nnc2-c2ccco2)cc1
IC50 (Large T antigen): 33.6 µM (active)
IC50 [5]: > 100 µM (inactive)
IC50 [6]: 3.02 µM (active)

CC1Cc2c(-c3ccccc3)nc3c(c2CO1)CN(CCOc1ccccc1)CC3 (configuration not stated)
AC50 (Cytochrome P450 2D6): 5.01 µM (inconclusive)
AC50 (Cytochrome P450 3A4): 3.98 µM (inconclusive)

COc1ccc2oc(C(=O)OCC(=O)Nc3cc(S(=O)(=O)N4CCOCC4)ccc3C)c(C)c2c1
IC50 [7]: 5.76 µM (active)
IC50 [8]: > 111 µM (not active)

COc1ccc(/C=C/C(=O)NCC(=O)N/N=C/c2cc(Br)ccc2OCc2ccccc2)cc1
CC50 [9]: > 40 µM (active)

Cc1cccc(N2CCN(CCNC(=O)Cn3c(=O)c4cccn4c4cccnc43)CC2)c1C
IC50 (Mu-type opioid receptor): 6.33 µM (active)
IC50 [10]: > 32 µM (inactive)
IC50 [11]: > 20 µM (inactive)
IC50 [12]: > 32 µM (inactive)

C=CCNC1=C(Cl)C(=O)N(c2cccc(Cl)c2Cl)C1=O
EC50 (Caspase-3): > 85.3 µM (inactive)
EC50 (Caspase-7): > 85.3 µM (inactive)

COc1ccc(C(C)(C)C)cc1NC(=O)C1CC=CCC1C(=O)O (configuration not stated)
IC50 (Leucine aminopeptidase): 3.05 µM (active)
IC50 (Aspartyl aminopeptidase): > 73.5 µM (not active)
IC50 (Procathepsin L): > 59.6 µM (not active)

O=C(NCC1COc2ccccc2O1)C1CCCN(S(=O)(=O)c2c[nH]cn2)C1 (configuration not stated)
CC50 (HeLa): > 99 µM (not active)

COc1nc(-c2ccc(Cl)cc2)ccc1-c1noc(-c2ccco2)n1
EC50 (Estrogen receptor): 10.9 µM (active)

COC(=O)c1cccc(NC(=O)CSc2nc(C)cc(O)n2)c1
IC50 (Leucine aminopeptidase): 7.51 µM (active)
IC50 (Aspartyl aminopeptidase): > 73.5 µM (not active)
IC50 (Bcl-2-like protein 10): 56.8 µM (inactive)
IC50 (Procathepsin L): > 59.6 µM (not active)

Cc1ccc(/C=C2/SC(=S)N(CC(=O)Nc3ncc(Cc4ccc(C)cc4)s3)C2=O)cc1
CC50 [9]: 37.9 µM (active)

CCn1nnc(-c2ccccc2NC(=O)c2cccc(-n3cnnn3)c2)n1
EC50 [13]: 22.5 µM (active)
EC50 [14]: 14.9 µM (active)
EC50 [15]: > 120 µM (not active)
IC50 [7]: 13.5 µM (not active)
IC50 [8]: > 111 µM (not active)

COC(=O)C/C=C1\c2ccccc2C(OC)C1C (configuration not stated)
AC50 (Cytochrome P450 2D6): 0.0794 µM (inconclusive)

Cc1cc(-c2nnc(S)n2/N=C/c2cccc([N+](=O)[O-])c2)[nH]n1
IC50 [5]: > 100 µM (inactive)
IC50 [6]: 3.68 µM (active)

O=C(O)CCn1ccnc1-c1ccccc1
EC50 (Estrogen receptor): 12.5 µM (not active)

Source: ChEMBL document CHEMBL1201862, “PubChem BioAssay data set” (2004)
